Assay results as given in patent US6340670B1, “Acetal benzylmaltosides as inhibitors of smooth muscle cell proliferation” (American Home Products Corporation, priority 1998, dated 2002).

Test system: Porcine Smooth Muscle Cell
Test: Effects of Compounds on Cell Proliferation Using 3H Thymidine Incorporation
Format: cell-based
Settings: for IC50: serum/growth factor stimulated cells, 24-36 h incubation, read-out: Porcine Smooth Muscle Cell Antiproliferation IC50; for Porcine Smooth Muscle Cell Antiproliferation, percent inhibition: control (100%) = maximally stimulated cells
Experimental: Effects of Compounds on Cell Proliferation Using ^3H Thymidine Incorporation
Human and porcine smooth muscle cells were tested in early passage (generally passage 3-7) at sub-confluent conditions. Cultures were grown in 16 mm (24 well) multi-well culture dishes in medium 199 supplemented with 10% fetal bovine serum and 2% antibiotic/antimycotic. At sub-confluence, the cells were placed in a defined serum free medium (AIM-V; Gibco) for 24-48 h prior to initiating the experimental protocol.
Compounds were added to each well at 50 fold dilution (20 μL/well) and the plates were incubated for 24-36 h at 37° C. in 5% CO2. Compounds were initially dissolved in 50% ethanol and serially diluted into media. Compounds were routinely evaluated at concentrations from 1 to 100 μM. As a control, grade II porcine intestinal mucosal heparin (sodium salt) was routinely evaluated in all cell preparations at concentrations from 0.1 to 100 μg/mL.
At the completion of the test procedure, plates were placed on ice, washed three times with ice cold phosphate buffered saline (PBS) and incubated in ice cold 10% trichloroacetic acid (TCA) got 30 min to remove acid soluble proteins. Solution was transferred to scintillation vials containing 0.4 N HCl (500 μL/vial to neutralize NaOH) and each well was rinsed two times with water (500 μL) for a total volume of 2 mL/vial.
Data was obtained, in triplicate, for both control and experimental samples. Control (100%) data was obtained from maximally stimulated cells, as the result of growth factor or serum stimulation. Experimental data was obtained from cells maximally stimulated with growth factor or serum and treated with compound. Data are expressed as an IC50 or percent inhibition in Table I below.

## Nc1cc(COC2OC(COC(=O)c3ccccc3)C(OC3OC4COC(c5ccccc5)OC4C(O)C3O)C(O)C2O)ccc1Cl [Example 67, 5-(6-O-Benzoyl-4′,6′-O-benzylidene-β-D-maltosyl)-oxy-methyl-2-chloro-phenylamine]
  IC50: 1290 nM

## O=C(OCC1OC(OCc2ccc(Cl)c([N+](=O)[O-])c2)C(O)C(O)C1OC1OC2COC(c3ccccc3)OC2C(O)C1O)c1ccccc1 [Example 30, 4-Chloro-3-nitro-benzyl-6-O-benzoyl-4′,6′-O-benyzlidene-β-D-maltoside]
  IC50: 351 nM

## CC(=O)Nc1cc(COC2OC(COC(=O)c3ccc(C#N)cc3)C(OC3OC4COC(c5ccccc5)OC4C(O)C3O)C(O)C2O)ccc1Cl [Example 40, (R)-N-[2-Chloro-5-[[[6-O-(4-cyanobenzoyl)-4-O-[4,6O-(phenylmethylene)-α-D-glucopyranosyl]-β-D-glucopyranosyl]oxy]methyl]phenyl]acetamide]
  IC50: 92 nM

## CS(=O)(=O)Nc1cc(COC2OC(CO)C(OC3OC4COC(c5ccccc5)OC4C(O)C3O)C(O)C2O)ccc1Cl [Example 83, N-{5-[(4′,6′-O-Benzylidene-β-D-maltosyl)-oxy-methyl]-2-chloro-phenyl}-methanesulfonamide]
@ 50 μM
  Porcine Smooth Muscle Cell Antiproliferation, percent inhibition: 18% @ 50

## CC(=O)N(C)c1cc(CO[C@@H]2O[C@H](CO)[C@@H](O[C@H]3O[C@@H]4COC(c5ccccc5)O[C@H]4[C@H](O)[C@H]3O)[C@H](O)[C@H]2O)ccc1Cl (stereo partly drawn) [Example 78, N-{5-[(4′,6′-O-Benzylidene-β-D-maltosyl)-oxymethyl]-2-chloro-phenyl}-N-methyl-acetamide]
@ 50 μM
  Porcine Smooth Muscle Cell Antiproliferation, percent inhibition: 8% @ 50

## CC(=O)Nc1cc(COC2OC(CO)C(OC3OC4COC(CCC#N)OC4C(O)C3O)C(O)C2O)ccc1Cl [Example 18, N-{2-Chloro-5[-(4′,6′-O-((1R)-3-cyano-propylidene)-β-D-maltosyloxy)-methyl]-phenyl}-acetamide]
@ 50 μM
  Porcine Smooth Muscle Cell Antiproliferation, percent inhibition: 43% @ 50

## O=C(Nc1cc(COC2OC(CO)C(OC3OC4COC(c5ccccc5)OC4C(O)C3O)C(O)C2O)ccc1Cl)c1ccc(C(=O)c2ccccc2)cc1 [Example 70, 4-Benzoyl-N-{5-[(4′,6′-O-benzylidene-β-D-maltosyl)-oxy-methyl]-2-chloro-phenyl}-benzamide]
  IC50: 9940 nM

## O=C(OCC1OC(OCc2ccc(Cl)cc2)C(O)C(O)C1OC1OC2COC(c3ccccc3)OC2C(O)C1O)c1ccccc1 [Example 69, Benzoic acid 1-O-(4-chloro)-benzyl-4′,6′-O-benzylidene-6-deoxy-β-D-malto-6-yl ester]
  IC50: 1530 nM

## CC(=O)Nc1cc(COC2OC(COC(=O)c3ccccc3)C(OC3OC4COC(C)OC4C(O)C3O)C(O)C2O)ccc1Cl [Example 2, (R)-N-[5-[[[6-O-Benzoyl-4-O-(4,6-O-ethylidene-α-D-glucopyranosyl)-β-D-glucopyranosyl]oxy]methyl]-2-chlorophenyl]acetamide]
  IC50: 103 nM

## N-{5-[(6-O-(3-Benzyl-1-oxo-propyl)-4′,6′-O-benzylidene-β-D-maltosyl)-oxy-methyl]-2-chloro-phenyl}-carbamic acid methyl ester [Example 82]
  IC50: 352 nM

## O=C(Nc1cc(COC2OC(COC(=O)c3ccccc3)C(OC3OC4COC(c5ccccc5)OC4C(O)C3O)C(O)C2O)ccc1Cl)c1ccc(C(=O)c2ccccc2)cc1 [Example 71, 4-Benzoyl-N-{5-[(6-benzoyl-oxy-4′,6′-O-benzylidene-β-D-maltosyl)-oxy-methyl]-2-chloro-phenyl}-benzoic acid amide]
  IC50: 50 nM

## CC(=O)Nc1cc(COC2OC(COS(=O)(=O)c3ccc(C)cc3)C(OC3OC4COC(c5ccccc5)OC4C(O)C3O)C(O)C2O)ccc1Cl [Example 6, N-(5-{[4′,6′-O-Benzylidene-6-O-(4-toluenesulfonyl)-β-D-maltosyl]-oxy-methyl}2-chloro-phenyl)-acetamide]
  IC50: 133 nM

## CC(=O)Nc1cc(COC2OC(COC(=O)c3ccc(Cl)c([N+](=O)[O-])c3)C(OC3OC4COC(c5ccccc5)OC4C(O)C3O)C(O)C2O)ccc1Cl [Example 38, (R)-N-[2-Chloro-5-[[[6-O-(4-chloro-3-nitrobenzoyl)-4-O-[4,6O-(phenylmethylene)-α-D-glucopyranosyl]-β-D-glucopyranosyl]oxy]methyl]phenyl]acetamide]
  IC50: 187 nM

## CC(=O)Nc1cc(COC2OC(COC(=O)c3cccnc3)C(OC3OC4COC(c5ccccc5)OC4C(O)C3O)C(O)C2O)ccc1Cl (stereo not shown) [Example 54, Nicotinic acid 6-(3-acetylamino-4-chloro-benzyloxy)-3-(7,8-dihydroxy-2-phenyl-hexahydro-pyrano[32-d][1,3]dioxin-6-yloxy)-4,5-dihydroxy-tetrahydro-pyran-2-ylmethyl ester]
  IC50: 211 nM

## CC(=O)Nc1cc(COC2OC(CO)C(OC3OC4COC(C)OC4C(O)C3O)C(O)C2O)ccc1Cl [Example 1, N-{2-Chloro-5-[(4′,6′-O-ethylidene)-β-D-maltosyloxymethyl]-phenyl}-acetamide]
@ 100 μM
  Porcine Smooth Muscle Cell Antiproliferation, percent inhibition: 32% @ 100

## CC(=O)Nc1cc(COC2OC(CO)C(OC3OC4COC(c5ccncc5)OC4C(O)C3O)C(O)C2O)ccc1Cl [Example 22, N-(2-Chloro-5-{[4′,6′-O-(4-pyridinemethylidene)-β-D-maltosyl]-oxy-methyl}-phenyl)-acetamide]
  IC50: 5530 nM

## COC(=O)Nc1cc(COC2OC(COC(=O)c3ccccc3)C(OC3OC4COC(c5ccccc5)OC4C(O)C3O)C(O)C2O)ccc1Cl [Example 81, N-{5-[(6-O-Benzoyl-4′,6′-O-benzylidene-β-D-maltosyl)-oxy-methyl]-2-chloro-phenyl}-carbamic acid methyl ester]
  IC50: 14 nM

## CC(=O)Nc1cc(COC2OC(COC(C)=O)C(OC3OC4COC(c5ccccc5)OC4C(OC(C)=O)C3OC(C)=O)C(OC(C)=O)C2OC(C)=O)ccc1Cl [Example 25, N-{5-[(4′,6′-O-Benzylidene-2,2′,3,3′,6-penta-O-acetyl-β-D-maltosyl-oxy)-methyl]-2-chloro-phenyl}-acetamide]
  IC50: 700 nM

## CC(=O)Nc1cc(COC2OC(COC(=O)CCCc3ccccc3)C(OC3OC4COC(c5ccccc5)OC4C(O)C3O)C(O)C2O)ccc1Cl [Example 49, N-{5-[(4′,6′-O-Benzylidene-6-O-phenyl-propyl-carboxyl-β-D-maltosyl)-oxy-methyl]-2-chloro-phenyl}-acetamide]
  IC50: 104 nM

## CC(=O)OC1C(OC2C(COC(=O)c3ccccc3)OC(OCc3ccc(Cl)c([N+](=O)[O-])c3)C(OC(C)=O)C2OC(C)=O)OC2COC(c3ccccc3)OC2C1OC(C)=O [Example 31, (R)-(4-Chloro-3-nitrophenyl)methyl-2,3-di-O-acetyl-6-O-benzoyl-4-O-[2,3-di-O-acetyl-4,6-O-(phenylmethylene)-α-D-glucopyranosyl]-β-D-glucopyranoside]
  IC50: 380 nM

## CC(=O)Nc1cc(COC2OC(COC(=O)c3ccccc3)C(OC3OC4COC(C(C)C)OC4C(O)C3O)C(O)C2O)ccc1Cl [Example 15, N-{5-[(6-O-Benzoyl-4′,6′-O-isobutylidene-β-D-maltosyl)-oxy-methyl]-2-chloro-phenyl}-acetamide]
  IC50: 3 nM

## CC(=O)Nc1cc(COC2OC(COC(=O)c3ccccc3)C(OC3OC4COC(c5ccccc5)OC4C(O)C3O)C(O)C2O)ccc1C [Example 85, N-{5-[(6-O-Benzoyl-4′,6′-O-benzylidene-β-D-maltosyl)-oxy-methyl]-2-methyl-phenyl}-acetamide]
  IC50: 418 nM
